These results are taken from EP0908457B1, “3-(1,2-benzisothiazol- and isoxazol-5-Y1)-2,4(1H,3H)-pyrimidinedione or thione and 3-(1,2-benzisothiazol- and isoxazol-5-y1)-4(3H)-pyrimidinone or thione herbicidal agents” (BASF AKTIENGESELLSCHAFT, priority 1997, dated 1999).

Data set [1] relates to Monochoria vaginalis, Presl. Kind of data set: Preemergence weed control under flooded paddy conditions, MOOVA (Monochoria). Note: meaning of each grade not given here. Type of data set: in vivo. The settings on record: preemergence, flooded paddy, rated three to four weeks after treatment.
In another data set the test system is Cyperus iria. The data set is described as follows: Preemergence weed control under flooded paddy conditions, CYPIR (Rice Flatsedge). Note: meaning of each grade not given here. Type of data set: in vivo. The conditions noted are these: preemergence, flooded paddy, rated three to four weeks after treatment.
The next data set concerns Sagittaria pygmaea, L. Kind of data set: Preemergence weed control under flooded paddy conditions, SAGPY (Arrowhead (Pygmaea)). Note: meaning of each grade not given here. Type of data set: in vivo. The settings on record: preemergence, flooded paddy, rated three to four weeks after treatment.
The subject of data set [2] is Cyperus serotinus, Rottb. Kind of data set: Preemergence weed control under flooded paddy conditions, CYPSE (Flatsedge). Note: meaning of each grade not given here. The conditions noted are these: preemergence, rated three to four weeks after treatment. Type of data set: in vivo.
Data set [3] concerns Echinochloa oryzoides (Ard.) Fritsch. The data set is described as follows: Preemergence weed control under flooded paddy conditions, ECHORC (Watergrass (Calif.)). Note: meaning of each grade not given here. Type of data set: in vivo. The settings on record: preemergence, flooded paddy, rated three to four weeks after treatment.
The test system of data set [4] is Oryza sativa, (L.) Tebonnet. The data set is described as follows: Rice tolerance to post-transplant applications under flooded paddy conditions (Example 187), ORYSAT (Rice, Tebonnet). The settings on record: rated three to four weeks after treatment.

Regarding `Cc1ccc(OCC#N)c(-c2nsc3ccc(-n4c(=O)cc(C(F)(F)F)n(C)c4=O)cc23)c1` [Example 57, 3-{3-[6-(Cyanomethoxy)-m-tolyl]-1,2-benzisothiazol-5-yl}-1-methyl-6-(trifluoromethyl)-2,4(1H,3H)-pyrimidinedione], the “herbicidal effect rating, MOOVA” value in data set [1] (0.0313 kg/ha), in data set [1] (0.0625 kg/ha), in data set [1] (0.1250 kg/ha) and in data set [1] (0.2500 kg/ha) was 9.0 in each case. Besides, the “herbicidal effect rating, CYPIR” value in the data set with Cyperus iria (0.0313 kg/ha), in the data set on Cyperus iria (0.0625 kg/ha), in the data set on Cyperus iria (0.1250 kg/ha) and in the data set with Cyperus iria (0.2500 kg/ha) was 9.0 throughout. Further, the “herbicidal effect rating, SAGPY” value in the data set with Sagittaria pygmaea, L. (0.0313 kg/ha) was found to be 0.0; in the data set with Sagittaria pygmaea, L. (0.0625 kg/ha), 0.0; in the data set with Sagittaria pygmaea, L. (0.1250 kg/ha) it was 0.0; in the data set with Sagittaria pygmaea, L. (0.2500 kg/ha), 0.0. Moreover, the “herbicidal effect rating, CYPSE” value in data set [2] (0.0313 kg/ha), in data set [2] (0.0625 kg/ha), in data set [2] (0.1250 kg/ha) and in data set [2] (0.2500 kg/ha) was 0.0 throughout. Moreover, the “herbicidal effect rating, ECHORC” value in data set [3] (0.0313 kg/ha), in data set [3] (0.0625 kg/ha), in data set [3] (0.1250 kg/ha) and in data set [3] (0.2500 kg/ha) was 9.0 in each case. The “herbicidal effect rating, ORYSAT (rice tolerance)” value (from here on “herbicidal effect rating, ORYSAT”) in data set [4] (0.0313 kg/ha) is listed as 3.0; in data set [4] (0.0625 kg/ha), 4.0; in data set [4] (0.1250 kg/ha) it was 5.0; in data set [4] (0.2500 kg/ha) it was 6.0.

`Cc1ccc(OC(C)C#N)c(-c2nsc3ccc(-n4c(=O)cc(C(F)(F)F)n(C)c4=O)cc23)c1` (stereo not drawn) [Example 58, 3-{3-[6-(1-Cyanoethoxy)-m-tolyl]-1,2-benzisothiazol-5-yl}-1-methyl-6-(trifluoromethyl)-2,4(1H,3H)-pyrimidinedione]: the “herbicidal effect rating, MOOVA” value in data set [1] (0.0313 kg/ha), in data set [1] (0.0625 kg/ha), in data set [1] (0.1250 kg/ha) and in data set [1] (0.2500 kg/ha) was 9.0 each time. Moreover, the “herbicidal effect rating, CYPIR” value with Cyperus iria (0.0313 kg/ha), in the data set on Cyperus iria (0.0625 kg/ha), with Cyperus iria (0.1250 kg/ha) and in the data set with Cyperus iria (0.2500 kg/ha) was 9.0 each time. Besides, the “herbicidal effect rating, SAGPY” value in the data set on Sagittaria pygmaea, L. (0.0313 kg/ha) is 0.0; in the data set with Sagittaria pygmaea, L. (0.0625 kg/ha), 0.0; in the data set with Sagittaria pygmaea, L. (0.1250 kg/ha) it was 0.0; in the data set on Sagittaria pygmaea, L. (0.2500 kg/ha), 0.0. Further, the “herbicidal effect rating, CYPSE” value in data set [2] (0.0313 kg/ha), in data set [2] (0.0625 kg/ha), in data set [2] (0.1250 kg/ha) and in data set [2] (0.2500 kg/ha) was 0.0 in each case. In addition, the “herbicidal effect rating, ECHORC” value in data set [3] (0.0313 kg/ha), in data set [3] (0.0625 kg/ha), in data set [3] (0.1250 kg/ha) and in data set [3] (0.2500 kg/ha) was 9.0 in each case. The “herbicidal effect rating, ORYSAT” value came out at 2.0 in data set [4] (0.0313 kg/ha), 2.0 in data set [4] (0.0625 kg/ha), 3.0 in data set [4] (0.1250 kg/ha) and 5.0 in data set [4] (0.2500 kg/ha).

For the compound `Cc1ccc(OC(C)C)c(-c2nsc3ccc(-n4c(=O)cc(C(F)(F)F)n(C)c4=O)cc23)c1` [Example 59, 3-[3-(6-Isopropoxy-m-tolyl)-1,2-benzisothiazol-5-yl]-1-methyl-6-(trifluoromethyl)-2,4(1H,3H)-pyrimidinedione], the “herbicidal effect rating, MOOVA” value in data set [1] (0.0313 kg/ha), in data set [1] (0.0625 kg/ha), in data set [1] (0.1250 kg/ha) and in data set [1] (0.2500 kg/ha) was 9.0 in each case. In addition, the “herbicidal effect rating, CYPIR” value was 7.0 in the data set with Cyperus iria (0.0313 kg/ha), 7.0 in the data set on Cyperus iria (0.0625 kg/ha), 8.0 with Cyperus iria (0.1250 kg/ha) and 9.0 with Cyperus iria (0.2500 kg/ha). The “herbicidal effect rating, SAGPY” value was 0.0 in the data set with Sagittaria pygmaea, L. (0.0313 kg/ha); 0.0 in the data set with Sagittaria pygmaea, L. (0.0625 kg/ha); 0.0 with Sagittaria pygmaea, L. (0.1250 kg/ha); 0.0 with Sagittaria pygmaea, L. (0.2500 kg/ha). Moreover, the “herbicidal effect rating, CYPSE” value in data set [2] (0.0313 kg/ha), in data set [2] (0.0625 kg/ha), in data set [2] (0.1250 kg/ha) and in data set [2] (0.2500 kg/ha) was 0.0 each time. In addition, the “herbicidal effect rating, ECHORC” value in data set [3] (0.0313 kg/ha), in data set [3] (0.0625 kg/ha), in data set [3] (0.1250 kg/ha) and in data set [3] (0.2500 kg/ha) was 9.0 throughout. Also, the “herbicidal effect rating, ORYSAT” value is listed as 2.0 in data set [4] (0.0313 kg/ha), 3.0 in data set [4] (0.0625 kg/ha), 4.0 in data set [4] (0.1250 kg/ha) and 4.0 in data set [4] (0.2500 kg/ha).

For the compound `CCN(CC)C(=O)COc1ccc(C)cc1-c1nsc2ccc(-n3c(=O)cc(C(F)(F)F)n(C)c3=O)cc12` [Example 60, 3-{3-{6-[(Diethylcarbamoyl)methoxy]-m-tolyl}-1,2-benzisothiazol-5-yl}-1-methyl-6-(trifluoromethyl)-2,4(1H,3H)-pyrimidinedione], the “herbicidal effect rating, MOOVA” value in data set [1] (0.0313 kg/ha), in data set [1] (0.0625 kg/ha), in data set [1] (0.1250 kg/ha) and in data set [1] (0.2500 kg/ha) was 9.0 in each case. Besides, the “herbicidal effect rating, CYPIR” value in the data set on Cyperus iria (0.0313 kg/ha), in the data set with Cyperus iria (0.0625 kg/ha), in the data set with Cyperus iria (0.1250 kg/ha) and with Cyperus iria (0.2500 kg/ha) was 0.0 in each case. Further, the “herbicidal effect rating, SAGPY” value in the data set on Sagittaria pygmaea, L. (0.0313 kg/ha) is 0.0; in the data set on Sagittaria pygmaea, L. (0.0625 kg/ha), 0.0; in the data set with Sagittaria pygmaea, L. (0.1250 kg/ha), 0.0; in the data set with Sagittaria pygmaea, L. (0.2500 kg/ha), 0.0. The “herbicidal effect rating, CYPSE” value in data set [2] (0.0313 kg/ha), in data set [2] (0.0625 kg/ha), in data set [2] (0.1250 kg/ha) and in data set [2] (0.2500 kg/ha) was 0.0 throughout. Besides, the “herbicidal effect rating, ECHORC” value in data set [3] (0.0313 kg/ha) was determined as 2.0; in data set [3] (0.0625 kg/ha), 4.0; in data set [3] (0.1250 kg/ha) it was 8.0; in data set [3] (0.2500 kg/ha) it was 9.0. Besides, the “herbicidal effect rating, ORYSAT” value in data set [4] (0.0313 kg/ha), in data set [4] (0.0625 kg/ha), in data set [4] (0.1250 kg/ha) and in data set [4] (0.2500 kg/ha) was 0.0 throughout.

Take `Cc1ccc(OCC(=O)N(C(C)C)C(C)C)c(-c2nsc3ccc(-n4c(=O)cc(C(F)(F)F)n(C)c4=O)cc23)c1` [Example 61, 3-{3-{6-[(Diisopropylcarbamoyl)methoxy]-m-tolyl}-1,2-benzisothiazol-5-yl}-1-methyl-6-(trifluoromethyl)-2,4(1H,3H)-pyrimidinedione]: the “herbicidal effect rating, MOOVA” value in data set [1] (0.0313 kg/ha) was found to be 8.0; in data set [1] (0.0625 kg/ha) it was 8.0; in data set [1] (0.1250 kg/ha), 9.0; in data set [1] (0.2500 kg/ha), 9.0. Besides, the “herbicidal effect rating, CYPIR” value came out at 0.0 with Cyperus iria (0.0313 kg/ha), 0.0 in the data set with Cyperus iria (0.0625 kg/ha), 2.0 in the data set with Cyperus iria (0.1250 kg/ha) and 2.0 with Cyperus iria (0.2500 kg/ha). For the same compound, the “herbicidal effect rating, SAGPY” value with Sagittaria pygmaea, L. (0.0313 kg/ha) was determined as 0.0; with Sagittaria pygmaea, L. (0.0625 kg/ha) it was 0.0; in the data set on Sagittaria pygmaea, L. (0.1250 kg/ha) it was 0.0; in the data set on Sagittaria pygmaea, L. (0.2500 kg/ha) it was 0.0. Moreover, the “herbicidal effect rating, CYPSE” value in data set [2] (0.0313 kg/ha), in data set [2] (0.0625 kg/ha), in data set [2] (0.1250 kg/ha) and in data set [2] (0.2500 kg/ha) was 0.0 throughout. Besides, the “herbicidal effect rating, ECHORC” value in data set [3] (0.0313 kg/ha) is given as 4.0; in data set [3] (0.0625 kg/ha), 7.0; in data set [3] (0.1250 kg/ha), 8.0; in data set [3] (0.2500 kg/ha), 8.0. The “herbicidal effect rating, ORYSAT” value in data set [4] (0.0313 kg/ha), in data set [4] (0.0625 kg/ha), in data set [4] (0.1250 kg/ha) and in data set [4] (0.2500 kg/ha) was 0.0 each time.
